Here are results for 32 compounds from a melting point compilation (Tetko et al.; mined from patent text by program, amines drawn as free bases though some values may be those of a salt).

As usually defined, the melting point is the temperature, or range, at which the solid turns liquid.

`Nc1c(Cl)cc(-c2nn(C3CCN(Cc4ccc(C(F)(F)F)cc4)CC3)c(=O)o2)c2c1OCCO2`: the melting point was 198 °C. The compound `CNc1ncc2c(n1)N(C1CCC(C(=O)O)CC1)C(=O)N(c1c(F)c(OC)cc(OC)c1F)C2` (configuration not stated) returned a melting point of 148 °C.

Consider `CCOC(=O)CCc1c[nH]c2ccc([N+](=O)[O-])cc12`, for which the melting point is 118 to 121 °C. The value for `CC1CCCN1C1CCN(c2ccc(CC(=O)NC3CCOCC3)cc2)C1` (configuration not stated) was 155 to 157 °C; that for `Cc1c(Oc2nccs2)ccc(C(=O)O)c1Cl` was 150 to 152 °C; that for `Cc1c(C(N)=O)nc2c(=O)[nH]c3cc(C(F)(F)F)ccc3n12` was over 250 °C. Consider `NC(=O)c1cnc(Oc2ccc(C3OCCO3)cc2F)cn1`, for which the melting point was 169 to 172 °C. As for `COc1cc(OC)nc(NC(=O)NS(=O)(=O)c2ccccc2CO)n1`, the melting point was in the range of 149 to 150 °C.

`c1ccc(C2OC3(CCNCC3)N3CCCCC23)cc1` (configuration not stated) displayed a melting point of 169 to 171 °C.

With `c1ccc(-c2cn3c4c(sc3n2)CCCC4)cc1`, the melting point fell in the range of 158 to 160 °C. In turn, `NC(=O)CNC(=O)c1cccc(-c2cccc3oc(Cc4cc(F)cc(Cl)c4)cc23)c1` displayed a melting point of 156 to 157 °C. The value for `NC(=O)c1ncn2c1[C@@H]1CCN1C(=O)c1cc(F)ccc1-2` was 223 to 224 °C; that for `CN1CC[C@H](NC(=O)c2ccccc2)[C@H](c2ccccc2)C1` (relative stereo) was 154 to 155 °C. To `Cc1c(SCCCSc2nc3ccccc3[nH]2)ccnc1CSc1nc2ccccc2[nH]1` belongs 85 to 87 °C. For `CCOC(=O)c1c(C(F)(F)F)nc(C(F)F)c(C(=O)OC)c1F`, the melting point fell in the range of 40 to 41 °C. To `COc1cccc([C@H]2O[C@H](CC(=O)NC(C)CC(=O)O)C(=O)N(CC(C)(C)C)c3ccc(Cl)cc32)c1OC` (some centres not stated) belongs 128 to 130 °C. `CCC=Cc1nc2ccccc2n1Cc1ccc(C(=O)O)cc1` showed a melting point of 210 °C.

On to `CC(=O)NCCc1ccc(CN2CCN(c3ccccc3)CC2)cc1`, for which the melting point fell in the range of 117 to 118 °C. The value for `N#Cc1c2c(c3c(c1N1CCCC1)CCc1ccccc1-3)-c1ccccc1C2` was 220 to 222 °C. `c1cc(-n2cccn2)cc(-n2cnc3cc(-c4ccoc4)ccc32)c1`: the melting point lay within 170 to 173 °C. Turning to `CC(C)Cn1c2c(c(=O)n(C)c1=O)C(=O)C(=Cc1cccnc1)S2`, the melting point was 215 to 216 °C. The value for `CCc1ccc2[nH]c3cnn(C)c3c(=O)c2c1` was 266 °C; that for `CN1C(=O)C(c2cc[nH]c2)(c2cccc(O)c2)N=C1N` (configuration not stated) was 142 to 145 °C. The compound `O=C(CCc1ccccc1)N1CCN(C(=O)C(Cc2ccc(O)cc2)NS(=O)(=O)c2cccc3cnccc23)CC1` (configuration not stated) had a melting point of 172 to 178 °C. With `O=C(Nc1ccc2ccc(Oc3ccccc3)nc2n1)c1cccs1`, the melting point was determined as 176 °C. The value for `C[C@H]1C(=O)Nc2c(N)cc(Cl)cc2N1C(=O)OCc1ccccc1` was 152 to 154 °C. In turn, `CCCn1nc(C(C)C)c(C(=O)OCOC(=O)C(C)(C)C)c1Cc1ccc(-c2ccccc2-c2nnn(C(c3ccccc3)(c3ccccc3)c3ccccc3)n2)cc1` registered a melting point of 128 to 130 °C. The value for `Clc1ccc([C@H]2C[C@@H]3CC[C@@H]4[C@H]2C(=NOCc2ccccc2)CN34)cc1Cl` was 72 to 74 °C; that for `Cn1cnc(COc2n[nH]c(C=O)c2-c2ccccc2)n1` was 202 to 205 °C. `O=C(Nc1cccc(-c2cccc(-n3c(=O)c(Cc4cccnc4)nc4cccnc43)c2)c1)C(F)(F)F`: the melting point lay within 138 to 144 °C. Regarding `CC(C)(C)N(CC(=O)O)C(=O)C(NC(=O)c1ccccc1)SC(=O)c1ccccc1` (configuration not stated), the melting point was in the range of 157 to 160 °C. The value for `CCCCC(Cc1ccc(OCCN(CC)CC)cc1)(C(=O)NO)S(=O)(=O)c1ccc(OC)cc1` (configuration not stated) was 67 °C.
